Test results from ChEMBL document CHEMBL1201862, “PubChem BioAssay data set” (2004).
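The compound was tested at five concentrations on cells cultured in 96-well plates, with a 48-hour exposure period. GI50: concentration for 50% inhibition of growth.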 Active and inactive are the calls of the source. Cut-off read from the data, not from the text of the source: active = GI50 up to about 1.1 µM and inactive = higher.

Key:
Test in all cases: inhibition of tumour cell growth, NCI panel, 48 h
SK-MEL-2 = test system: SK-MEL-2
OVCAR-4 = test system: OVCAR-4
SN12C = test system: SN12C
K562 = test system: K562
SR = test system: SR
CCRF-CEM = test system: CCRF-CEM
IGROV-1 = test system: IGROV-1
A498 = test system: A498
BT-549 = test system: BT-549
M14 = test system: M14
KM12 = test system: KM12
OVCAR-5 = test system: OVCAR-5
MDA-MB-435 = test system: MDA-MB-435
CAKI-1 = test system: CAKI-1
NCI-H522 = test system: NCI-H522
786-0 = test system: 786-0
SF-295 = test system: SF-295
SNB-19 = test system: SNB-19

Row | SMILES | GI50 (SK-MEL-2) | GI50 (OVCAR-4) | GI50 (SN12C) | GI50 (K562) | GI50 (SR) | GI50 (CCRF-CEM) | GI50 (IGROV-1) | GI50 (A498) | GI50 (BT-549) | GI50 (M14) | GI50 (KM12) | GI50 (OVCAR-5) | GI50 (MDA-MB-435) | GI50 (CAKI-1) | GI50 (NCI-H522) | GI50 (786-0) | GI50 (SF-295) | GI50 (SNB-19)
1 | CSC1(SC2=NCCN2)SC2(NCCN2)S1 | 19.2 µM (inactive) | 20.4 µM (inactive) | 20.7 µM (inactive) | 12.5 µM (inactive) | 5.7 µM (inactive) | 1.21 µM (inactive) | 18.6 µM (inactive) | 12.6 µM (inactive) | 21.4 µM (inactive) | 21.3 µM (inactive) | 2.3 µM (inactive) | 19.5 µM (inactive) | 15.4 µM (inactive) | 13.6 µM (inactive) | 11.8 µM (inactive) | 3.86 µM (inactive) | 27.8 µM (inactive) | 20.3 µM (inactive)
2 | Nc1nc(N)nc(CC(=O)O)n1 | > 100 µM (inactive) | > 100 µM (inactive) | > 100 µM (inactive) | > 100 µM (inactive) | > 100 µM (inactive) | > 100 µM (inactive) | > 100 µM (inactive) | > 100 µM (inactive) | > 100 µM (inactive) | > 100 µM (inactive) | > 100 µM (inactive) | > 100 µM (inactive) | > 100 µM (inactive) | > 100 µM (inactive) | > 100 µM (inactive) | > 100 µM (inactive) | > 100 µM (inactive) | > 100 µM (inactive)
3 | Oc1ccc(/C=N/c2ccccc2O)cc1 | 21.9 µM (inactive) | > 100 µM (inactive) | > 100 µM (inactive) | 24.7 µM (inactive) | 48.6 µM (inactive) | 44.7 µM (inactive) | 54.7 µM (inactive) | > 100 µM (inactive) | 67.8 µM (inactive) | 35.5 µM (inactive) | 75.3 µM (inactive) | > 100 µM (inactive) | 16.9 µM (inactive) | 68.1 µM (inactive) | 29.3 µM (inactive) | 23.3 µM (inactive) | 52.2 µM (inactive) | > 100 µM (inactive)
4 | C/C(=N/NC(=S)Nc1ccc([N+](=O)[O-])cc1)c1cccc(/C(C)=N\NC(=S)Nc2ccc([N+](=O)[O-])cc2)n1 | 3.99 µM (inactive) | 0.959 µM (active) | 0.671 µM (active) | 0.569 µM (active) | 0.216 µM (active) | 0.318 µM (active) | 0.569 µM (active) | 1.09 µM (active) | 0.463 µM (active) | 0.321 µM (active) | 0.348 µM (active) | 2.29 µM (inactive) | 0.931 µM (active) | 0.631 µM (active) | 0.628 µM (active) | 0.264 µM (active) | 0.564 µM (active) | 1.33 µM (inactive)
5 | COC(=O)C(=O)Nc1cc2c3c(c1)Oc1cccc4c1C3(C)c1c(cccc1O2)O4 | > 87.7 µM (inactive) | > 100 µM (inactive) | > 69.5 µM (inactive) | – | 2.93 µM (inactive) | 1.26 µM (inactive) | 55.8 µM (inactive) | 39.7 µM (inactive) | > 100 µM (inactive) | > 100 µM (inactive) | > 100 µM (inactive) | > 55.2 µM (inactive) | > 100 µM (inactive) | > 72.4 µM (inactive) | > 86.3 µM (inactive) | 30.9 µM (inactive) | > 100 µM (inactive) | > 100 µM (inactive)
6 | O=C1c2ccccc2-n2nnnc2C2CSCN12 (stereo unspecified) | > 100 µM (inactive) | > 100 µM (inactive) | > 100 µM (inactive) | 56.2 µM (inactive) | > 100 µM (inactive) | > 100 µM (inactive) | > 100 µM (inactive) | > 100 µM (inactive) | > 100 µM (inactive) | > 100 µM (inactive) | > 100 µM (inactive) | > 100 µM (inactive) | > 100 µM (inactive) | > 100 µM (inactive) | > 100 µM (inactive) | > 100 µM (inactive) | > 100 µM (inactive) | > 100 µM (inactive)
7 | CC(C)(C)O/N=C/c1cc(NC(=S)c2ccsc2)ccc1Cl | 16 µM (inactive) | 14.6 µM (inactive) | 17.1 µM (inactive) | – | 3.36 µM (inactive) | 10.7 µM (inactive) | 16.7 µM (inactive) | 10.5 µM (inactive) | 13.9 µM (inactive) | 16.7 µM (inactive) | 9.89 µM (inactive) | 17.7 µM (inactive) | 14.6 µM (inactive) | 16.6 µM (inactive) | 13.3 µM (inactive) | 16.2 µM (inactive) | 11.6 µM (inactive) | –
8 | COC(=O)CNS(=O)(=O)c1ccc(-c2c3nc(c(-c4ccc(S(=O)(=O)NCC(=O)OC)cc4)c4ccc([nH]4)c(-c4ccc(S(=O)(=O)NCC(=O)OC)cc4)c4nc(c(-c5ccc(S(=O)(=O)NCC(=O)OC)cc5)c5ccc2[nH]5)C=C4)C=C3)cc1 | > 100 µM (inactive) | > 100 µM (inactive) | > 100 µM (inactive) | > 100 µM (inactive) | > 100 µM (inactive) | > 100 µM (inactive) | > 100 µM (inactive) | 64.9 µM (inactive) | > 100 µM (inactive) | 18.7 µM (inactive) | 50.7 µM (inactive) | > 100 µM (inactive) | > 100 µM (inactive) | > 100 µM (inactive) | > 100 µM (inactive) | > 100 µM (inactive) | > 100 µM (inactive) | > 100 µM (inactive)
9 | COc1ccc(/C=C/c2cc(O)cc(OC3OC(CO)C(O)C(O)C3O)c2)cc1O (stereo unspecified) | > 100 µM (inactive) | > 100 µM (inactive) | > 100 µM (inactive) | 45.1 µM (inactive) | > 100 µM (inactive) | 82.4 µM (inactive) | 66.2 µM (inactive) | > 100 µM (inactive) | > 100 µM (inactive) | > 100 µM (inactive) | 18.9 µM (inactive) | 67.1 µM (inactive) | 82.4 µM (inactive) | > 100 µM (inactive) | 44 µM (inactive) | > 100 µM (inactive) | 51.8 µM (inactive) | > 100 µM (inactive)
10 | c1ccc(-c2ccc(-c3ccc(C4=NCCN4)cc3)o2)cc1 | 1.87 µM (inactive) | 6.11 µM (inactive) | 2.99 µM (inactive) | 1.42 µM (inactive) | 0.773 µM (active) | 1.56 µM (inactive) | 2.74 µM (inactive) | 1.76 µM (inactive) | 6.28 µM (inactive) | 1.68 µM (inactive) | 1.92 µM (inactive) | 2.69 µM (inactive) | 1.97 µM (inactive) | 2.34 µM (inactive) | 2.02 µM (inactive) | 1.68 µM (inactive) | 1.92 µM (inactive) | 2.4 µM (inactive)
11 | N#CC[C@@H](O)COc1ccccc1 | > 100 µM (inactive) | > 100 µM (inactive) | > 100 µM (inactive) | > 100 µM (inactive) | > 100 µM (inactive) | > 100 µM (inactive) | – | > 100 µM (inactive) | > 100 µM (inactive) | > 100 µM (inactive) | > 100 µM (inactive) | > 100 µM (inactive) | > 100 µM (inactive) | > 100 µM (inactive) | > 100 µM (inactive) | > 100 µM (inactive) | > 100 µM (inactive) | > 100 µM (inactive)
12 | Cc1nc2ccc(F)cc2c2c1CCO2 | > 100 µM (inactive) | > 100 µM (inactive) | 30.3 µM (inactive) | 41.5 µM (inactive) | > 100 µM (inactive) | > 100 µM (inactive) | > 100 µM (inactive) | > 100 µM (inactive) | 80 µM (inactive) | 99.1 µM (inactive) | > 100 µM (inactive) | > 100 µM (inactive) | 70.1 µM (inactive) | 15.2 µM (inactive) | > 100 µM (inactive) | > 100 µM (inactive) | > 100 µM (inactive) | > 100 µM (inactive)
13 | CO[C@H]1C[C@H](O[C@H]2CC[C@@]3(C)[C@H](CC[C@@H]4[C@@H]3CC[C@]3(C)[C@@H](C5=CC(=O)OC5)CC[C@]43O)C2)O[C@H](C)[C@H]1O | 0.0151 µM (active) | < 0.01 µM (active) | < 0.01 µM (active) | < 0.01 µM (active) | < 0.01 µM (active) | < 0.01 µM (active) | < 0.01 µM (active) | 0.0113 µM (active) | < 0.01 µM (active) | 0.0168 µM (active) | < 0.011 µM (active) | < 0.0149 µM (active) | < 0.0111 µM (active) | < 0.01 µM (active) | < 0.01 µM (active) | < 0.01 µM (active) | < 0.01 µM (active) | 0.0158 µM (active)
14 | COc1ccc(N2C(=O)C(Cl)C2c2cc3cc(Br)ccc3nc2Cl)cc1 (stereo unspecified) | 5.12 µM (inactive) | 4.36 µM (inactive) | 5.79 µM (inactive) | 7.24 µM (inactive) | 1.33 µM (inactive) | 1.86 µM (inactive) | 5.12 µM (inactive) | 16.6 µM (inactive) | 4.46 µM (inactive) | 4.86 µM (inactive) | 10.9 µM (inactive) | 7.96 µM (inactive) | 4.71 µM (inactive) | 6.32 µM (inactive) | 3.81 µM (inactive) | 6.17 µM (inactive) | 11.9 µM (inactive) | 9.93 µM (inactive)
15 | O=C(CCc1cccc(O)c1)NCCCNC(=O)CCc1cccc(O)c1 | > 100 µM (inactive) | > 100 µM (inactive) | > 100 µM (inactive) | > 100 µM (inactive) | > 100 µM (inactive) | > 100 µM (inactive) | > 100 µM (inactive) | > 100 µM (inactive) | > 100 µM (inactive) | > 100 µM (inactive) | > 100 µM (inactive) | > 100 µM (inactive) | > 100 µM (inactive) | > 100 µM (inactive) | > 100 µM (inactive) | > 100 µM (inactive) | > 100 µM (inactive) | > 100 µM (inactive)
